In ChEMBL document CHEMBL1151528, “The synthesis of heterosubstituted benzimidazole derivatives with potent angiotensin II antagonist activity” (Bioorg Med Chem Lett, 1993):

Legend:
[1] = biological target: Angiotensin II receptor (Rattus norvegicus) (UniProt P29089+P25095+P35351); assay: Inhibition of pressor response induced by Angiotensin II in Alderley Park Wistar rats after single intravenous dose; format: functional
[2] = biological target: angiotensin II receptor (Cavia porcellus); assay: Displacement of monoiodinated angiotensin II from guinea-pig adrenal gland angiotensin II receptor

Row | ED50 [1] | IC50 [2] | SMILES
1 | 0.04 mg/kg | – | CCCCc1nc2c(=O)[nH][nH]c(=O)c2n1Cc1ccc(-c2ccccc2-c2nn[nH]n2)cc1
2 | 0.62 mg/kg | 0.022 µM | CCCCc1nc2cnnc(O)c2n1Cc1ccc(-c2ccccc2-c2nn[nH]n2)cc1
3 | 0.65 mg/kg | – | CCCCc1nc(Cl)c(CO)n1Cc1ccc(-c2ccccc2-c2nnn[nH]2)cc1
4 | 0.35 mg/kg | 0.016 µM | CCCCc1nc2ccnc(O)c2n1Cc1ccc(-c2ccccc2-c2nn[nH]n2)cc1
5 | – | 100 µM | CCCCc1nc2cnn(Cc3ccc(-c4ccccc4C(=O)OC)cc3)cc-2n1
6 | 0.22 mg/kg | – | CCc1nc2c(C)cc(C)nc2n1Cc1ccc(-c2ccccc2-c2nn[nH]n2)cc1

The remaining lines, values behind:

Row | SMILES | ED50 [1] | IC50 [2]
7 | CCCCc1nc2cnnc(O)c2n1Cc1ccc(-c2ccccc2C(=O)O)cc1 | 6.7 mg/kg | –
8 | CCCCc1nc(C(=O)OCC)c(C(=O)OCC)n1Cc1ccc(-c2ccccc2-c2nn[nH]n2)cc1 | – | 0.255 µM
9 | CCCCc1nc2cnncc2n1Cc1ccc(-c2ccccc2C(=O)O)cc1 | 5.2 mg/kg | 10 µM
10 | CCCCc1nc2cnn(C)c(=O)c2n1Cc1ccc(-c2ccccc2C(=O)O)cc1 | 47 mg/kg | 10 µM
11 | CCCCc1nc2ccccc2n1Cc1ccc(-c2ccccc2-c2nn[nH]n2)cc1 | 5.2 mg/kg | –
